Assay results as given in US4701205A, “Chemical tobacco sucker control” (Chevron Research Company, priority 1986, dated 1987).
Where two headings read alike, the source gives them in different places.

Tests used:
[1] = system: tobacco suckers (axillary buds), Var. Glurk; assay: Tobacco sucker control, spray to run-off on topped plants, Var. Glurk; assay type: in vivo, Nicotiana tabacum; details: for inhibition at 200 µg/mL / inhibition at 400 µg/mL / inhibition at 800 µg/mL / inhibition at 1600 µg/mL: Nicotiana tabacum; for Mean # of Nodes with Secondary Suckers / Mean Sucker Length (cm): Table 3
Method: In this example, the title compound of Example 1 (i.e., 2-[1-(3-trans-chloroallyloxyamino)ethylidene]-5-(2-ethylthiopropyl)cyclohexane-1,3-dione was tested side-by-side with 2-[1-(3-trans-chloroallyloxyamino)butylidene]-5-(2-ethylthio-propyl)-cyclohexane-1,3-dione for their ability to control (retard or prevent) lateral axillary buds in tobacco plants.
(§1) Twenty-four hours before treatment, the tobacco plants are "topped", removing the top 15 cm of the plant. Any plants which are tending to lean or bend in the pot were staked, and all pots labeled. Three to five replicates were used per treatment. A 5% wt. stock solution of each test compound dissolved in acetone containing a small amount of non-ionic emulsifier was prepared. The stock solution was appropriately diluted with deionized water containing 0.625 g of emulsifier per liter of water, to the desired spray solution concentration.
(§2) Plants were sprayed to point of run-off with a pressure atomizer, making sure that the stem, leaf axils, and leaves were all wet thoroughly with the solution. 30 to 35 ml of solution were used per plant. This was checked by recording volume of solution in sprayer reservoir before and after treatment. After spraying, the plants were incubated for 18 to 23 days in a greenhouse maintained at 70°-80° F. using standing water capilliary irrigation. The plants were uniformly fertilized once per week with a standard house plant fertilizer. After the incubation period, the plants were evaluated at various times for sucker control. […] The growth of secondary suckers (buds at lower nodes) when present, were also measured.
(§3) In some instances, comparisons were also made on the basis of sucker length.
(§4) The results are reported as an average of the replicates used in each test.
(§5) In this example, the title compound of Example 1 was tested side-by-side with maleic hydrazide ("C-2") with respect to axillary bud control in two varities of tobacco plants. These tests were conducted following the same general procedure as described in Example 3 hereinabove using the dosage concentrations given in the tables hereinbelow. […]

[2] = system: tobacco suckers (axillary buds), Var. 12 × L8; assay: whole plant or invertebrate; assay type: in vivo, Nicotiana tabacum; details: for inhibition at 200 µg/mL / inhibition at 400 µg/mL / inhibition at 800 µg/mL: Nicotiana tabacum, read-out: Percent Bud Inhibition Top Two Nodes; for Mean # of Nodes with Secondary Suckers / Mean Sucker Length (cm): Table 3
Method: as §1, §2, §3, §4, §5

[3] = system: tobacco suckers (axillary buds); assay: Tobacco sucker control, soil drench treatment; assay type: in vivo; details: for inhibition at 400 µg/mL: Nicotiana tabacum, read-out: Percent Bud Inhibition Top Three Nodes
Method: as §1
(§6) Plants were sprayed to point of run-off with a pressure atomizer, making sure that the stem, leaf axils, and leaves were all wet thoroughly with the solution. 30 to 35 ml of solution were used per plant. This was checked by recording volume of solution in sprayer reservoir before and after treatment. After spraying, the plants were incubated for 18 to 23 days in a greenhouse maintained at 70°-80° F. using standing water capilliary irrigation. The plants were uniformly fertilized once per week with a standard house plant fertilizer. After the incubation period, the plants were evaluated at various times for sucker control. To make this evaluation, the axillary buds at the top three nodes (primary suckers) of each plant were compared to those of the check, and a visual estimation of percent inhibition was made wherein 0=no inhibition of axillary buds as compared with check and 100=no axillary buds at top three nodes. The growth of secondary suckers (buds at lower nodes) when present, were also measured.
(§7) In this example, the title compound of Example 1 was tested side-by-side with maleic hydrazide for tobacco sucker control (inhibition), when applied as a soil drench and also when applied only to the leaves of the plant. The same general procedure as described in Example 3 was used with the exception that the test compound was applied only to the expanded leaves for foliage treatment (foliar paint) and the compound was drenched only on the soil in the pot for soil drench treatment. The average results of these tests are given in the following table, wherein 0=no inhibition and 100=complete inhibition, i.e., no axillary buds.

[4] = system: tobacco suckers (axillary buds); assay: Tobacco sucker control, foliar paint (expanded leaves only); assay type: in vivo; details: for inhibition at 400 µg/mL: Nicotiana tabacum, read-out: Percent Bud Inhibition Top Three Nodes; for Sucker control when applied only to the leaves (systemic action), in words: applied only to the leaves of the tobacco plant
Method: as §1, §6, §7

[5] = 504 h, Table I, 400 mg/l spray, three weeks after treatment, read-out: Percent Bud Inhibition
[6] = 504 h, Table I, 800 mg/l spray, three weeks after treatment, read-out: Percent Bud Inhibition
[7] = 504 h, Table I, 1600 mg/l spray, three weeks after treatment, read-out: Percent Bud Inhibition
[8] = 1008 h, Table I, 400 mg/l spray, six weeks after treatment, read-out: Percent Bud Inhibition Top two Nodes
[9] = 1008 h, Table I, 800 mg/l spray, six weeks after treatment, read-out: Percent Bud Inhibition Top two Nodes
[10] = 1008 h, Table I, 1600 mg/l spray, six weeks after treatment, read-out: Percent Bud Inhibition Top two Nodes
[11] = 200 mg/l spray, six weeks after treatment
[12] = 400 mg/l spray, six weeks after treatment
[13] = 800 mg/l spray, six weeks after treatment
[14] = Table I, 400 mg/l spray, six weeks after treatment
[15] = Table I, 400 mg/l spray, three weeks after treatment
[16] = Table I, 800 mg/l spray, six weeks after treatment
[17] = Table I, 800 mg/l spray, three weeks after treatment
[18] = Table I, 1600 mg/l spray, six weeks after treatment
[19] = Table I, 1600 mg/l spray, three weeks after treatment
[20] = 504 h, read-out: Percent Bud Inhibition Top Two Nodes
[21] = 1008 h, read-out: Percent Bud Inhibition Top Two Nodes
[22] = Soil Drench, 400 mg/l, six weeks after treatment

CCSC(C)CC1CC(=O)C(=C(C)NOC/C=C/Cl)C(=O)C1 (stereo not drawn) [Compound 1, Trans-2-[1-(3-chloroallyloxyamino)-ethylidene]-5-(2-ethylthiopropyl)-cyclohexane-1,3-dione]
inhibition at 200 µg/mL ([1]; 504 h, Table 2, 200 mg/l spray, three weeks after treatment, read-out: Percent Bud Inhibition Top Two Nodes): 100%
inhibition at 400 µg/mL ([1]; 504 h, Table 2, 400 mg/l spray, three weeks after treatment, read-out: Percent Bud Inhibition Top Two Nodes): 100%
inhibition at 800 µg/mL ([1]; 504 h, Table 2, 800 mg/l spray, three weeks after treatment, read-out: Percent Bud Inhibition Top Two Nodes): 100%
inhibition at 400 µg/mL [1, 5]: 100%
inhibition at 800 µg/mL [1, 6]: 100%
inhibition at 1600 µg/mL [1, 7]: 100%
inhibition at 200 µg/mL ([1]; 1008 h, Table 2, 200 mg/l spray, six weeks after treatment, read-out: Percent Bud Inhibition Top Two Nodes): 100%
inhibition at 400 µg/mL ([1]; 1008 h, Table 2, 400 mg/l spray, six weeks after treatment, read-out: Percent Bud Inhibition Top Two Nodes): 100%
inhibition at 800 µg/mL ([1]; 1008 h, Table 2, 800 mg/l spray, six weeks after treatment, read-out: Percent Bud Inhibition Top Two Nodes): 100%
inhibition at 400 µg/mL [1, 8]: 100%
inhibition at 800 µg/mL [1, 9]: 100%
inhibition at 1600 µg/mL [1, 10]: 100%
Mean # of Nodes with Secondary Suckers [1, 11]: 2.5
Mean Sucker Length (cm) [1, 11]: 30.8 cm
Mean # of Nodes with Secondary Suckers [1, 12]: 1.5
Mean Sucker Length (cm) [1, 12]: 9.6 cm
Mean # of Nodes with Secondary Suckers [1, 13]: 0.5
Mean Sucker Length (cm) [1, 13]: 10.0 cm
Number of Secondary Suckers (axillary buds at lower nodes) [1, 14]: 2.3
Total Sucker Length [1, 14]: 24 cm
Number of Usable Leaves [1, 15]: 6.7
Number of Secondary Suckers (axillary buds at lower nodes) [1, 16]: 1.3
Total Sucker Length [1, 16]: 7 cm
Number of Usable Leaves [1, 17]: 6.7
Number of Secondary Suckers (axillary buds at lower nodes) [1, 18]: 0
Total Sucker Length [1, 18]: 0 cm
Number of Usable Leaves [1, 19]: 6.3
inhibition at 200 µg/mL ([2]; 504 h, Table 2, 200 mg/l spray, three weeks after treatment): 95%
inhibition at 400 µg/mL ([2]; 504 h, Table 2, 400 mg/l spray, three weeks after treatment): 93%
inhibition at 800 µg/mL ([2]; 504 h, Table 2, 800 mg/l spray, three weeks after treatment): 95%
inhibition at 200 µg/mL ([2]; 1008 h, Table 2, 200 mg/l spray, six weeks after treatment): 86.3%
inhibition at 400 µg/mL ([2]; 1008 h, Table 2, 400 mg/l spray, six weeks after treatment): 96.9%
inhibition at 800 µg/mL ([2]; 1008 h, Table 2, 800 mg/l spray, six weeks after treatment): 96.8%
Mean # of Nodes with Secondary Suckers [2, 11]: 4.0
Mean Sucker Length (cm) [2, 11]: 24.0 cm
Mean # of Nodes with Secondary Suckers [2, 12]: 2.6
Mean Sucker Length (cm) [2, 12]: 45.3 cm
Mean # of Nodes with Secondary Suckers [2, 13]: 2.3
Mean Sucker Length (cm) [2, 13]: 17.4 cm
inhibition at 400 µg/mL ([3]; 504 h, Soil Drench (30 ml/pot), 400 mg/l, three weeks after treatment): 100%
inhibition at 400 µg/mL ([3]; 1008 h, Soil Drench (30 ml/pot), 400 mg/l, six weeks after treatment): 100%
Sucker control when applied as a soil drench (systemic action), in words [3]: highly effective
Observation on suckers at basal nodes (footnote a) ([4]; Foliar Paint, 400 mg/l, six weeks after treatment): some suckers appearing at basal nodes
inhibition at 400 µg/mL ([4]; 504 h, Foliar Paint (Leaves Only), 400 mg/l, three weeks after treatment): 98%
inhibition at 400 µg/mL ([4]; 1008 h, Foliar Paint (Leaves Only), 400 mg/l, six weeks after treatment): 99%
Sucker control when applied only to the leaves (systemic action), in words [4]: highly effective

CCCC(NOC/C=C/Cl)=C1C(=O)CC(CC(C)SCC)CC1=O (stereo not drawn) [Compound C-1, 2-[1-(3-trans-chloroallyloxyamino)butylidene]-5-(2-ethylthio-propyl)-cyclohexane-1,3-dione]
inhibition at 400 µg/mL [1, 5]: 0%
inhibition at 800 µg/mL [1, 6]: 0%
inhibition at 1600 µg/mL [1, 7]: 7%
inhibition at 400 µg/mL [1, 8]: 0%
inhibition at 800 µg/mL [1, 9]: 0%
inhibition at 1600 µg/mL [1, 10]: 0%
Number of Secondary Suckers (axillary buds at lower nodes) [1, 14]: 0
Total Sucker Length [1, 14]: 0 cm
Number of Usable Leaves [1, 15]: 7.3
Number of Secondary Suckers (axillary buds at lower nodes) [1, 16]: 0
Total Sucker Length [1, 16]: 0 cm
Number of Usable Leaves [1, 17]: 7.7
Number of Secondary Suckers (axillary buds at lower nodes) [1, 18]: 0
Total Sucker Length [1, 18]: 0 cm
Number of Usable Leaves [1, 19]: 6.0

O=c1ccc(=O)[nH][nH]1 [Compound C-2, maleic hydrazide]
inhibition at 200 µg/mL [1, 20]: 10%
inhibition at 400 µg/mL [1, 20]: 88%
inhibition at 800 µg/mL [1, 20]: 93%
inhibition at 200 µg/mL [1, 21]: 31.1%
inhibition at 400 µg/mL [1, 21]: 100%
inhibition at 800 µg/mL [1, 21]: 100%
Mean # of Nodes with Secondary Suckers [1, 11]: 0
Mean Sucker Length (cm) [1, 11]: 0 cm
Mean # of Nodes with Secondary Suckers [1, 12]: 1.5
Mean Sucker Length (cm) [1, 12]: 51.0 cm
Mean # of Nodes with Secondary Suckers [1, 13]: 2.5
Mean Sucker Length (cm) [1, 13]: 31.0 cm
inhibition at 200 µg/mL ([2]; 504 h): 0%
inhibition at 400 µg/mL ([2]; 504 h): 23%
inhibition at 800 µg/mL ([2]; 504 h): 95%
inhibition at 200 µg/mL ([2]; 1008 h): 12.7%
inhibition at 400 µg/mL ([2]; 1008 h): 54.1%
inhibition at 800 µg/mL ([2]; 1008 h): 100%
Mean # of Nodes with Secondary Suckers [2, 11]: 0.3
Mean Sucker Length (cm) [2, 11]: 3.0 cm
Mean # of Nodes with Secondary Suckers [2, 12]: 1.3
Mean Sucker Length (cm) [2, 12]: 76.8 cm
Mean # of Nodes with Secondary Suckers [2, 13]: 5.3
Mean Sucker Length (cm) [2, 13]: 25.8 cm
inhibition at 400 µg/mL ([3]; soil, 504 h): 79%
inhibition at 400 µg/mL ([3]; soil, 1008 h): 84%
Observation on new growth (footnote b) [3, 22]: new growth deformedstrap shaped leaves
Observation on suckers at basal nodes (footnote a) [3, 22]: some suckers appearing at basal nodes
Sucker control when applied as a soil drench (systemic action), in words [3]: operates sytemically
inhibition at 400 µg/mL ([4]; foliar, 504 h): 15%
inhibition at 400 µg/mL ([4]; foliar, 1008 h): 0%
Sucker control when applied only to the leaves (systemic action), in words [4]: does not translocate effectively

CCC(C)Nc1c([N+](=O)[O-])cc(C(C)(C)C)cc1[N+](=O)[O-] (stereo not shown) [Compound C-3, 4-(1,1-dimethylethyl)-N--(1-methyl-propyl)-2,6-dinitrobenzenamine]
inhibition at 400 µg/mL ([3]; soil, 1008 h): 27%
Sucker control when applied as a soil drench (systemic action), in words [3]: ineffective
inhibition at 400 µg/mL ([4]; foliar, 1008 h): 3%
Sucker control when applied only to the leaves (systemic action), in words [4]: ineffective
